In US9717243B2, “Piperidinecarboxylic acid derivatives as fungicides” (priority 2013, dated 2017):
Where two headings read alike, the source gives them in different places.

Key:
[1] = LogP by HPLC on reversed phase columns (EEC directive 79/831 Annex V.A8); assay type: physicochemical
Description: Calibration was done with straight-chain alkan2-ones (with 3 to 16 carbon atoms) with known LogP values (measurement of LogP values using retention times with linear interpolation between successive alkanones). Lambda-max-values were determined using UV-spectra from 200 nm to 400 nm and the peak values of the chromatographic signals.

Plasmopara viticola = assay: Plasmopara test (grapevines)/preventive; details: preventive, evaluated 6 days after inoculation, 0% = untreated control, 100% = no disease
Description: Plasmopara Test (Grapevines)/Preventive • Solvent: 24.5 parts by weight of acetone • 24.5 parts by weight of dimethylacetamide • Emulsifier: 1 part by weight of alkylaryl polyglycol ether
After the spray coating has dried on, the plants are inoculated with an aqueous spore suspension of Plasmopara viticola and then remain for 1 day in an incubation cabinet at approximately 20° C. and a relative atmospheric humidity of 100%. The plant is subsequently placed for 4 days in a greenhouse at approximately 21° C. and a relative atmospheric humidity of approximately 90%. The plants are then misted and placed for 1 day in an incubation cabinet.
The test is evaluated 6 days after the inoculation.

Phytophthora infestans = assay type: in vivo; details: 100 ppm of active ingredient; preventive, tomatoes; evaluated 3 days after inoculation; 0% = untreated control, 100% = no disease

Structure (SMILES)	Log P[a] [1]	also measured
C#CCOc1ccc(F)c(F)c1C1CC(c2csc(C3(C(=O)OC)CCN(C(=O)Cn4nc(C(F)F)cc4C(F)F)CC3)n2)=NO1 (centres unmarked) [Example I-3]	3.61	Efficacy % (Plasmopara viticola; 1 ppm of active ingredient): 93%
COC(=O)C1(c2nc(C3=NOC(c4ccccc4OS(C)(=O)=O)C3)cs2)CCN(C(=O)Cn2nc(C(F)F)cc2C(F)F)CC1 (centres unmarked) [Example I-7, methyl 1-{[3,5-bis(difluoromethyl)-1H-pyrazol-1-yl]acetyl}-4-[4-(5-{2-[(methylsulfonyl)oxy]phenyl}-4,5-dihydro-1,2-oxazol-3-yl)-1,3-thiazol-2-yl]piperidine-4-carboxylate]	–	chromatographic logP ([1]; Table 1, compounds of formula (I), LC-UV, acidic range, 0.1% formic acid in water and acetonitrile as eluent, read-out: Log P[a]): 3.27; Efficacy % (Phytophthora infestans): 95%; Efficacy % (Plasmopara viticola; 100 ppm of active ingredient): 100%
COC(=O)C1(c2nc(C3=NOC(c4ccccc4OS(C)(=O)=O)C3)cs2)CCN(C(=O)Nc2cc(C(F)F)ccc2C(F)F)CC1 (centres unmarked) [Example I-9]	3.42	Efficacy % (Phytophthora infestans): 91%; Efficacy % (Plasmopara viticola; 100 ppm of active ingredient): 100%
COC(=O)C1(c2nc(C3=NOC(c4ccccc4OS(C)(=O)=O)C3)cs2)CCN(C(=O)Nc2cn(C(F)F)nc2C)CC1 (centres unmarked) [Example I-10]	2.64	Efficacy % (Phytophthora infestans): 94%; Efficacy % (Plasmopara viticola; 100 ppm of active ingredient): 96%
COC(=O)C1(c2nc(C3=NOC(c4ccccc4OS(C)(=O)=O)C3)cs2)CCN(C(=O)Nc2cc(C)ccc2C)CC1 (centres unmarked) [Example I-11]	3.29	Efficacy % (Phytophthora infestans): 100%; Efficacy % (Plasmopara viticola; 100 ppm of active ingredient): 100%
C#CCOc1ccc(F)c(F)c1C1CC(c2csc(C3(C(=O)OC)CCN(C(=O)Cn4nc(C(F)F)cc4C)CC3)n2)=NO1 (centres unmarked) [Example I-66]	3.33	Efficacy % (Plasmopara viticola; 1 ppm of active ingredient): 76%
N#Cc1cccc(NC(=O)N2CCC(C#N)(C(=O)O)CC2)c1 [IV-31]	1.29	–
N#CC1(C(=O)O)CCN(C(=S)Nc2cccc(Cl)c2)CC1 [IV-32]	2.01	–
N#CC1(C(=O)O)CCN(C(=S)Nc2ccc(OC(F)(F)F)cc2)CC1 [IV-33]	2.33	–
COC(=O)C1(C#N)CCN(C(=O)Nc2cn(C)nc2C(F)F)CC1 [IV-34]	1.40	–
CCC(C)NC(=O)C1(C#N)CCN(C(=S)Nc2cccc(Cl)c2)CC1 (centres unmarked) [IV-35]	2.69	–
CCC(C)NC(=O)C1(C#N)CCN(C(=O)Nc2cccc(C#N)c2)CC1 (centres unmarked) [IV-36]	1.28	–
CCC(C)NC(=O)C1(C#N)CCN(C(=O)Cc2ccc(Cl)cc2)CC1 (centres unmarked) [IV-37]	2.46	–
CCC(C)NC(=O)C1(C#N)CCN(C(=O)Cc2ccccc2)CC1 (centres unmarked) [IV-38]	2.08	–
CCC(C)NC(=O)C1(C#N)CCN(C(=O)Nc2ccc(Cl)c(C(F)(F)F)c2)CC1 (centres unmarked) [IV-39]	3.15	–
CC(C)=CCN(C)C(=O)C1(C#N)CCN(C(=O)Nc2ccc(F)cc2)CC1 [IV-40]	2.71	–
CC(C)=CCN(C)C(=O)C1(C#N)CCN(C(=O)Nc2ccccc2)CC1 [IV-41]	2.61	–
CC(C)=CCNC(=O)C1(C#N)CCN(C(=O)Nc2ccccc2)CC1 [IV-42]	2.26	–
CC(C)=CCNC(=O)C1(C#N)CCN(C(=O)Nc2ccc(Cl)cc2)CC1 [IV-43]	2.68	–
CC(C)=CCNC(=O)C1(C#N)CCN(C(=O)Nc2ccc(F)cc2)CC1 [IV-44]	2.16	–
CCC(C)NC(=O)C1(C#N)CCN(C(=O)Nc2ccccc2)CC1 (centres unmarked) [IV-45]	2.13	–
CC(C)=CCN(C)C(=O)C1(C#N)CCN(C(=O)Nc2ccc(Cl)cc2)CC1 [IV-46]	3.03	–
CCCCNC(=O)C1(C#N)CCN(C(=O)Nc2ccccc2)CC1 [IV-48]	2.20	–
COC(=O)C1(C#N)CCN(C(=O)CCl)CC1 [VI-1, methyl 1-(chloroacetyl)-4-cyanopiperidine-4-carboxylate]	–	chromatographic logP ([1]; Table 3, compounds of formula (VI), LC-UV, acidic range, 0.1% formic acid in water and acetonitrile as eluent, read-out: Log P[a]): 1.27
Cn1nc(C(F)F)cc1NC(=O)Oc1ccccc1 [phenyl [3-(difluoromethyl)-1-methyl-1H-pyrazol-5-yl]carbamate]	–	chromatographic logP ([1]; pH 2.7, synthesis intermediates in preparation examples, read-out: LogP (pH 2.7)): 2.18
